The text below walks through data of patent US20220089592A1, “IMIDAZO[1,2-A]PYRIDINYL DERIVATIVES AS IRAK4 INHIBITORS” (priority 2019, published 2022).

In assay [1] the target is T1, IRAK4 (Homo sapiens, UniProt Q9NWZ3).
T1 sequence (Q9NWZ3 1-460): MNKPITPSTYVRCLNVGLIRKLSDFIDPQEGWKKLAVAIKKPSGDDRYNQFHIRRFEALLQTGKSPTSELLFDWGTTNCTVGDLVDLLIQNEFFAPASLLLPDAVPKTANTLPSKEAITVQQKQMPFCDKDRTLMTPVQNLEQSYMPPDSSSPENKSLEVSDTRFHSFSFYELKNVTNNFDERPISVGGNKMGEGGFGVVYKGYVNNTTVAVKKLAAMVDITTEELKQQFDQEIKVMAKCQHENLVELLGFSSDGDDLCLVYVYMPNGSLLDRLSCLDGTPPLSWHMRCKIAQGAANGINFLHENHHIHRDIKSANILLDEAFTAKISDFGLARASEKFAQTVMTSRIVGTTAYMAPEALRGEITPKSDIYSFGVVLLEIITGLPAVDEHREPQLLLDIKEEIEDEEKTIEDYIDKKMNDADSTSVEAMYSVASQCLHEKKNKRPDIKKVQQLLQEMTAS
Nature of the assay: 2-hour 1 mM ATP IRAK4 Biochemical assay (as above, but with 100 pM IRAK4 and 1 mM ATP). The settings on record: IRAK4 MSD BIOCHEMICAL (1 mM ATP) IC50 (μM), 100 pM IRAK4, 2 hours. The method, boiled down: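 MSD electrochemiluminescence read-out: biotinylated peptide product bound to streptavidin plates, probed with anti-P-Thr rabbit antibody and Sulfo-Tag goat anti-rabbit. Kinase reaction used 1 mM ATP and 100 pM IRAK4 over 2 hours before EDTA quench.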

Assay [2] deals with T1, IRAK4. In words: 2-hour 10 μM ATP Biochemical Assay (MesoScale Detection format; IRAK4 phosphorylation of biotin labeled IRAK1 activation loop peptide). The conditions noted are these: IRAK4 MSD BIOCHEMICAL (10 μM ATP) IC50 (μM), 1 nM IRAK4, 2 hours. The procedure, abridged:
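Electrochemiluminescent MSD readout: after streptavidin capture, phosphothreonine on the biotin-labelled IRAK1 activation-loop peptide detected by rabbit antibody and Sulfo-Tag secondary. Phosphorylation ran 2 h with 10 μM ATP before EDTA quench.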

On to `CCOc1cc2nc(CCCO)cn2cc1NC(=O)c1cccc(C(F)F)n1` [Example 23, 6-(difluoromethyl)-N-(7-ethoxy-2-(3-hydroxypropyl)imidazo[1,2-a]pyridin-6-yl)picolinamide], for which the IC50 stood at 0.002 µM against IRAK4 [1] and 0.001 µM at IRAK4 [2].
Consider `CCOc1cc2nc(C34CC(C#N)(C3)C4)cn2cc1NC(=O)c1cccc(C(F)(F)F)n1` [Example 521, N-(2-(3-cyanobicyclo[1.1.1]pentan-1-yl)-7-ethoxyimidazo[1,2-a]pyridin-6-yl)-6-(trifluoromethyl)picolinamide 2,2,2-trifluoroacetate], for which the 50% inhibitory concentration (IC50) against IRAK4 [1] and at IRAK4 [2] was 0.001 µM in each case.
Take `CCOc1cc2nc(C3CC3)cn2cc1NC(=O)c1cccc(N2CCOCC2)n1` [Example 131, N-(2-cyclopropyl-7-ethoxyimidazo[1,2-a]pyridin-6-yl)-6-morpholinopicolinamide]: the IC50 at IRAK4 [1] amounted to 0.044 µM; against IRAK4 [2], 0.005 µM.
The corresponding values for `CC(C#N)Oc1cc2nc(C3CCOCC3)cn2cc1NC(=O)c1cccc(C(F)F)n1` (stereo not drawn) [Example 173, N-(7-(1-cyanoethoxy)-2-(tetrahydro-2H-pyran-4-yl)imidazo[1,2-a]pyridin-6-yl)-6-(difluoromethyl)picolinamide] are 0.001 µM and 0.001 µM.
The corresponding values for `CCOc1cc2nc(CCC(F)F)cn2cc1NC(=O)c1cccc(C(F)F)n1` [Example 110, 6-(difluoromethyl)-N-(2-(3,3-difluoropropyl)-7-ethoxyimidazo[1,2-a]pyridin-6-yl)picolinamide] are 0.001 µM and 0.001 µM.
The matching figures for `CCOc1cc2nc(C3CC3)cn2cc1NC(=O)c1cccc(C2CCOC2)n1` (stereo not drawn) [Example 238, N-(2-cyclopropyl-7-ethoxyimidazo[1,2-a]pyridin-6-yl)-6-(tetrahydrofuran-3-yl)picolinamide]: 0.015 µM and 0.004 µM.
Regarding `CCOc1cc2nc(C(F)C3CCOC3)cn2cc1NC(=O)c1cccc(C(F)(F)F)n1` (single isomer, unassigned) [Example 144], the IC50 on IRAK4 [1] and on IRAK4 [2] was 0.001 µM in each case.
Consider `O=C(Nc1ccc2nc(CC3CCOC3)cn2c1)c1cccc(C(F)F)n1` (stereo not drawn) [Example 355, 6-(difluoromethyl)-N-(2-((tetrahydrofuran-3-yl)methyl)imidazo[1,2-a]pyridin-6-yl)picolinamide], for which the IC50 against IRAK4 [1] is 0.042 µM; on IRAK4 [2], 0.008 µM.
Consider `CCOc1cc2nc(CC3CCOC3)cn2cc1NC(=O)c1ccn(C(C)C)n1` (stereo not drawn) [Example 122, N-(7-ethoxy-2-((tetrahydrofuran-3-yl)methyl)imidazo[1,2-a]pyridin-6-yl)-1-isopropyl-1H-pyrazole-3-carboxamide], for which the IC50 at IRAK4 [1] is 0.003 µM; against IRAK4 [2], 0.008 µM.
Take `CCOc1cc2nc(C3CN(CCOC)C3)cn2cc1NC(=O)c1cccc(C(F)F)n1` [Example 80, 6-(difluoromethyl)-N-(7-ethoxy-2-(1-(2-methoxyethyl)azetidin-3-yl)imidazo[1,2-a]pyridin-6-yl)picolinamide]: the IC50 came to 0.005 µM against IRAK4 [1] and 0.002 µM at IRAK4 [2].
The corresponding values for `CCOc1cc2nc(C3CCOCC3)cn2cc1NC(=O)c1scc(C)c1OC` [Example 211, N-(7-ethoxy-2-(tetrahydro-2H-pyran-4-yl)imidazo[1,2-a]pyridin-6-yl)-3-methoxy-4-methylthiophene-2-carboxamide] are 0.022 µM and 0.007 µM.
With `CCOc1cc2nc(C(F)C3CCOC3)cn2cc1NC(=O)c1cccc(C(F)(F)F)n1` (mixture of isomers) [Example 142, N-(7-ethoxy-2-(fluoro(tetrahydrofuran-3-yl)methyl)imidazo[1,2-a]pyridin-6-yl)-6-(trifluoromethyl)picolinamide], the 50% inhibitory concentration (IC50) against IRAK4 [1] and against IRAK4 [2] was 0.001 µM in each case.
Regarding `CCOc1cc2nc([C@]34CCOC[C@H]3C4)cn2cc1NC(=O)c1cccc(C(F)F)n1` (relative stereo) [Example 249, N-(2-((1S*,6R*)-3-oxabicyclo[4.1.0]heptan-6-yl)-7-ethoxyimidazo[1,2-a]pyridin-6-yl)-6-(difluoromethyl)picolinamide], the concentration for half-maximal inhibition (IC50) against IRAK4 [1] and against IRAK4 [2] was 0.001 µM throughout.
On to `CCOc1cc2nc(C(C)(C)O)cn2cc1NC(=O)c1cccc(C(F)(F)F)n1` [Example 19, N-(7-ethoxy-2-(2-hydroxypropan-2-yl)imidazo[1,2-a]pyridin-6-yl)-6-(trifluoromethyl)picolinamide], for which the concentration for half-maximal inhibition (IC50) at IRAK4 [1] stood at 0.044 µM; on IRAK4 [2], 0.009 µM.
As for `CCOc1cc2nc(C3CCOCC3)cn2cc1NC(=O)c1ccn(C2CC2(F)F)n1` (stereo not drawn) [Example 209, 1-(2,2-difluorocyclopropyl)-N-(7-ethoxy-2-(tetrahydro-2H-pyran-4-yl)imidazo[1,2-a]pyridin-6-yl)-1H-pyrazole-3-carboxamide], the half-maximal inhibitory concentration (IC50) worked out at 0.009 µM at IRAK4 [1] and 0.005 µM at IRAK4 [2].
The corresponding values for `CCOc1nc2nc(CC3CCOC3)cn2cc1NC(=O)c1cccc(C(F)(F)F)n1` (stereo not drawn) [Example 93, N-(7-ethoxy-2-((tetrahydrofuran-3-yl)methyl)imidazo[1,2-a]pyrimidin-6-yl)-6-(trifluoromethyl)picolinamide] are 0.005 µM and 0.001 µM.
The matching figures for `CCOc1cc2nc(CC3CCOC3)cn2cc1NC(=O)c1ccn(C(F)F)n1` (stereo not drawn) [Example 124, 1-(difluoromethyl)-N-(7-ethoxy-2-((tetrahydrofuran-3-yl)methyl)imidazo[1,2-a]pyridin-6-yl)-1H-pyrazole-3-carboxamide]: 0.002 µM and 0.002 µM.
The corresponding values for `CCOc1cc2nc(C34CC(C(F)F)(C3)C4)cn2cc1NC(=O)c1cccc(C(F)(F)F)n1` [Example 522, N-(2-(3-(difluoromethyl)bicyclo[1.1.1]pentan-1-yl)-7-ethoxyimidazo[1,2-a]pyridin-6-yl)-6-(trifluoromethyl)picolinamide 2,2,2-trifluoroacetate] are 0.002 µM and 0.001 µM.
Turning to `CCOc1cc2nc(C3CCOCC3)cn2cc1NC(=O)c1ccn2c1CCC2` [Example 225, N-(7-ethoxy-2-(tetrahydro-2H-pyran-4-yl)imidazo[1,2-a]pyridin-6-yl)-2,3-dihydro-1H-pyrrolizine-7-carboxamide], the results for the IC50 on IRAK4 [1] and on IRAK4 [2] were 0.029 µM and 0.009 µM, respectively.
On to `CCOc1cc2nc(Cc3ccn(C)n3)cn2cc1NC(=O)c1cccc(C(F)F)n1` [Example 84, 6-(difluoromethyl)-N-(7-ethoxy-2-((1-methyl-1H-pyrazol-3-yl)methyl)imidazo[1,2-a]pyridin-6-yl)picolinamide], for which the IC50 on IRAK4 [1] was 0.015 µM; at IRAK4 [2], 0.082 µM.
The matching figures for `CCOc1cc2nc(C(C)C3CCOC3)cn2cc1NC(=O)c1cccc(C(F)(F)F)n1` (mixture of isomers) [Example 137, N-(7-ethoxy-2-(1-(tetrahydrofuran-3-yl)ethyl)imidazo[1,2-a]pyridin-6-yl)-6-(trifluoromethyl)picolinamide]: 0.001 µM and 0.001 µM.
The matching figures for `CC(C)Oc1c(NC(=O)c2cnn3cccnc23)cn2cc(C34COC(C)(C3)C4)nc2c1F` [Example 577, N-(8-fluoro-7-isopropoxy-2-(1-methyl-2-oxabicyclo[2.1.1]hexan-4-yl)imidazo[1,2-a]pyridin-6-yl)pyrazolo[1,5-a]pyrimidine-3-carboxamide]: 0.001 µM and 0.003 µM.
The corresponding values for `CCOc1cc2nc([C@H]3C[C@H](O)C3)cn2cc1NC(=O)c1cccc(C(F)F)n1` [Example 96] are 0.001 µM and 0.001 µM.
Regarding `CCOc1cc2nc(C3CC3)cn2cc1NC(=O)c1cccc2c1OCC2` [Example 119, N-(2-cyclopropyl-7-ethoxyimidazo[1,2-a]pyridin-6-yl)-2,3-dihydrobenzofuran-7-carboxamide], the 50% inhibitory concentration (IC50) on IRAK4 [1] worked out at 0.021 µM; against IRAK4 [2], 0.009 µM.
The matching figures for `CCOc1cc2nc(C3CCOCC3)cn2cc1NC(=O)c1cccc(OCCOC)n1` [Example 516, N-(7-ethoxy-2-(tetrahydro-2H-pyran-4-yl)imidazo[1,2-a]pyridin-6-yl)-6-(2-methoxyethoxy)picolinamide]: 0.034 µM and 0.007 µM.
In the case of `CCOc1nc2nc(CC)cn2cc1NC(=O)c1cccc(C(F)F)n1` [Example 74, 6-(difluoromethyl)-N-(7-ethoxy-2-ethylimidazo[1,2-a]pyrimidin-6-yl)picolinamide], the values for the IC50 against IRAK4 [1] and against IRAK4 [2] were 0.018 µM and 0.007 µM, respectively.
The corresponding values for `CCOc1cc2nc(C3CCOCC3)cn2cc1NC(=O)c1cc(F)n(C)n1` [Example 210, N-(7-ethoxy-2-(tetrahydro-2H-pyran-4-yl)imidazo[1,2-a]pyridin-6-yl)-5-fluoro-1-methyl-1H-pyrazole-3-carboxamide] are 0.038 µM and 0.015 µM.

For orientation: IC50 means the concentration that inhibits the measured activity by half. A higher IC50 goes with a need for much substance.
